Assay results published in publication PMC12003248, “ERCC6L2 mitigates replication stress and promotes centromere stability” (Cell Reports, 2023).

What was measured:
Type in all cases: cell-based, human
[1] = tested on: control and ERCC6L2^−/− cells; assay: Nascent DNA degradation assay (DNA combing); settings: 3 mM hydroxyurea, 4 h; IdU/CldU track ratio; N(tracks)>700
Experimental: Control and ERCC6L2^−/− cells were labeled with 100 μM CldU, followed by 100 μM IdU in the presence of 10 μM Polα inhibitor CD437. Each pulse lasted 40 min. Cells were then trypsinised and embedded in agarose plugs using a kit from Genomic Vision according to the manufacturer’s instructions. DNA was extracted and purified from the agarose plugs, and stretched onto silanised coverslips with the molecular combing system (Genomic Vision). CldU was detected with rat anti-BrdU antibody (Abcam, BU1/75) and Alexa Fluor 594 conjugated secondary antibody (Thermo Fisher Scientific). ldU was detected with mouse anti-BrdU antibody (Becton Dickinson, BD44) and Alexa Fluor 488 conjugated secondary antibody (Thermo Fisher Scientific). […] More than 1500 tracks were analyzed per condition.
For nascent DNA degradation assay, cells were sequentially incubated with 100 μM CldU and 100 μM IdU. […] More than 700 tracks were analyzed per condition. […]
Error bars represent standard errors from 3 independent experiments. […] U2OS cells were transfected with YFP-ERCC6L2 constructs and monitored by live cell imaging following laser induced DNA damage. […]
(F) Valida?on of siRNA against CTC1 and C20orf196. […] For BRCA1, RIF1, REV7, 53BP1, BLM and CtIP, cells were transfected as in F, and endogenous proteins were detected by speciﬁc an?bodies. […] Expression was detected by an?-FLAG or an?-GFP an?bodies, as indicated. […]

[2] = tested on: CENP-B; assay: CENP-B intensities by QIBC after genotoxic stress; settings: 1 h, 5 h recovery, N(cells)>30,000
[3] = tested on: pRPA32; assay: pRPA levels (ssDNA marker); settings: 50 µg/ml phleomycin for 12 h; vs control cells
Experimental: For quantitative analysis of pRPA, RAD51, γH2AX, and EdU foci, non-overlapping images were acquired using a 20x objective lens. Image analysis was performed using CellProfiler.[98] For quantification of TRF1-and CENP-C-positive micronuclei, random non-overlapping images were acquired, and Z-stacks were further collected for each micronucleus to examine the presence of TRF1 and CENP-C foci. […]
(§1) 0.8 ControlERCC6L2ControlERCC6L2
(§2) 0.4 28 kDa short exposure […]
(§3) Figure S12. DNA damage-induced changes in control and ERCC6L2 -/- cells. Related to Figure 6.
(§4) (A) Box and whisker plots measuring average pRPA intensi?es in control and ERCC6L2-/- cells. Cells were either untreated, or exposed to 50 µg /ml phleomycin for 12 h, before ﬁxa?on and staining. N(images)>180, N(cells)>28,000. (B) Representa?ve images of phleomycin treated cells used for quan?ﬁca?ons in A. Shown are expressions of indicated proteins, with zoomed images of cells in coloured frames.
(§5) (C) Analysis of pRPA levels by western blot. Treatments were as in A. (D) Box and whisker plots measuring average pKAP1 intensi?es in control and ERCC6L2-/- cells. Cells were either untreated, or exposed to 50 µg /ml phleomycin for 12 h, before ﬁxa?on and staining.
N(images)>180, N(cells)>28,000. […]

[4] = tested on: control and ERCC6L2^−/− U2OS cells; assay: Micronuclei formation; settings: cells grown with damaging agents for 2 days; ERCC6L2^−/− vs control U2OS
Text: absence or presence of damaging agents for 2 days. CENPC and 53BP1 were used as centromeric and DSB markers, respec?vely. N(images) >140, N(cells)>50,000. (B) Quan?ﬁca?on of micronuclei subtypes in control and ERCC6L2-/- U2OS cells, as indicated. 53BP1 or γH2AX were used as DSB markers; CENP-C was used as a centromere marker; Telomeric repeat-binding factor 2-interac?ng protein 1 (RAP1) was used as a telomere marker. N(images)>400, N(cells)>30,000.

[5] = tested on: control and ERCC6L2^−/− U2OS cells; assay: Clonogenic survival assay; settings: 11 days, 3 independent experiments, ERCC6L2^−/− vs control U2OS
Experimental: Cells were seeded in 6-well plates (approximately 700 cells/well) and either left untreated or treated with the indicated concentrations of genotoxic agents. Cells were then grown for 11 days to allow colony formation. Colonies were stained with 5 mg/ml crystal violet (Sigma-Aldrich) solution in 25% methanol for 30 min. Pictures were taken using a Nikon D3200 camera and images were analyzed using FIJI software. FIJI’s ‘Analyze Particles’ function was used to quantify numbers of colonies. Survival was calculated relative to untreated cells. Each experiment was performed in technical triplicates, and data shown represent combined data from at least three independent experiments.

[6] = tested on: pKAP1 (KAP1 S824); assay: pKAP1 levels; settings: 50 µg/ml phleomycin for 12 h; vs control cells
Experimental: as §1, §2, §3, §4, §5
N(images)>180, N(cells)>28,000. (E) Representa?ve images of phleomycin treated cells used for quan?ﬁca?ons in D. Shown are expressions of indicated proteins, with zoomed images of cells in coloured frames. (F) Analysis of pKAP1 levels by western blot. Treatments were as in D. (G) Box and whisker plots measuring KAP1 foci in control and ERCC6L2-/- cells. Cells were either untreated, or exposed to 50 µg /ml phleomycin for 12 h, before ﬁxa?on and staining. N(images)>180, N(cells)>28,000. B, E, H: Scale bar: 10 µm. A, D, G: Sta?s?cs […]

Compound	nascent DNA protection, control vs ERCC6L2^−/− [1]	CENP-B intensities after 25 µg/ml phleomycin [2]	pRPA levels in treated ERCC6L2^−/− cells [3]	micronuclei formation in ERCC6L2-deficient cells [4]	sensitivity of ERCC6L2-deficient cells [5]	pKAP1 levels in treated ERCC6L2^−/− cells [6]
NC(=O)NO [hydroxyurea]	did not observe significant differences in nascent DNA protection	–	–	–	–	–
phleomycin	–	not aﬀected by DNA damage	increased levels of pRPA	increased frequency of micronuclei formation	increased sensitivity	decreased levels of pKAP1
